Converted amounts (≈) assume the structure as drawn. Where two headings read alike, the source gives them in different places.
Columns and labels:
[1] = Method: The pH of the test medium in this study was measured to be 8.50 ± 0.10. The neutral fraction (fn) of the target compounds, their pH-adjusted octanol–water coefficients (log Dow), and their pH-adjusted lipid–water coefficients (log Dlipw) were calculated for this pH condition (Table 1). The calculation and related details are given in the Supporting Information (SI) in Text S1. […]
Text 1. Calculation of physicochemical property parameters
The pH of the artificial freshwater environment for D. magna was measured as […]. The fraction of neutral species (f n) for the test compounds was calculated as the following equation:1–3 […]
where i is 1 for acids and -1 for bases. The pH-adjusted octanol-water coefficient log

D. magna [2] = settings: for BCF in vivo (dynamic BCF): ku/kd; for ku (uptake rate constant): 24 h uptake phase; for BCF in vivo ratio / half-life in vivo ratio: methylated derivative over demethylated counterpart
D. magna [3] = test: Interconversion (methylation/demethylation) in D. magna
[4] = cited from earlier work; for pKa: measured value, ref CompTox Chemicals Dashboard; for logKow: measured values, ref PubChem
in vivo [5] = settings: Daphnia magna
Method: Preliminary tests were conducted for each target compound at widely spaced concentrations to identify the concentration range for deriving an accurate dose–response curve. The stock solutions of individual test compounds were prepared in methanol and diluted with 10 mL of aerated AFW to different concentrations in 20 mL glass vials. The methanol volume was set to 100 μL in each vial as the solvent carrier, and a control group containing 100 μL of methanol without the target compound was used as the carrier solvent control. Each test included at least five concentration levels, and the concentrations of test compounds in the medium were experimentally measured (SI, Table S1). Each treatment included four replicates. […] The obtained dose–response data were fitted to the Boltzmann equation:[24] [drawing 1] 1 where C is the measured concentration of the test compound.

D. magna [6] = settings: in vivo
in vivo [7] = settings: whole D. magna (wet weight), 1 mg L^–1, pH 8.5
H. azteca and G. pulex = settings: cited from earlier work
[8] = end of uptake phase, 24 h, 1 mg L^–1 nominal
[9] = pH 8.50, calculated, crosschecked with ChemAxon
[10] = after 2 h of exposure, 1 mg L^–1 nominal

| SMILES | fn (neutral fraction) ([1]; pH 8.50, calculated) | BCF in vivo (dynamic BCF) (D. magna [2]; D. magna, 1 mg L^–1 nominal) | ku (uptake rate constant) (D. magna [2]; D. magna) [mL/min/kg] | logKow [4] | BCF in vivo ratio (D. magna [2]) | half-life in vivo ratio (D. magna [2]) | LC50 at 48 h (in vivo [5]) [µg/mL] | half-life (in vivo [7]) [h] | logDlipw ([1]; pH 8.50, calculated) | logDow [1, 9] | demethylation in D. magna (demethylated product in exposed D. magna) (D. magna [6]) | further results |
| --- | --- | --- | --- | --- | --- | --- | --- | --- | --- | --- | --- | --- |
| O=C1CN=C(c2ccccc2)c2cc(Cl)ccc2N1 [DM-diazepam, reference compound] | 1 | 9.8 ± 0.3 L kg^–1, w.w. | 20 ± 1.7 | – | – | – | – | – | – | – | – | molar equivalent of demethylated TP in D. magna (D. magna [3]; at the end of depuration): 33.5% |
| O=C(O)c1ccc(O)cc1 [DM-methylparaben] | 0 | 0.9 ± 0.5 L kg^–1, w.w. | 5 ± 0 | 1.58 | 1.0 | 1.0 | 226 ± 17.3 (≈ 1630 µM) | 2.2 | – | – | – | logDow ([1]; pH 8.5): -2.38; pKa [4]: 4.54; concentration in D. magna (D. magna [2]; [8]): 682.7 ± 91.5 ng g^–1 (w.w.); molar equivalent of demethylated TP relative to methylated parent in D. magna (D. magna [6]; Daphnia magna, 12 h, pH 8.5): about 2.0%; molar equivalent of demethylated TP in D. magna (D. magna [6]; Daphnia magna, 24 h, pH 8.5): 54.8% |
| C[C@H](C(=O)O)c1ccc2cc(O)ccc2c1 [DM-naproxen] | 0 | 0 L kg^–1, w.w. | – | – | – | – | 67.9 ± 6 (≈ 314 µM) | – | −0.67 | -1.32 | – | logDlipw ([1]; pH 8.50, calculated, listed as DM-Naproxen): -0.67; level in D. magna (D. magna [2]; bioaccumulation experiment, 1 mg L^–1 nominal): below the LOD; formation rate of demethylated TP (D. magna [6]; Daphnia magna, pH 8.5): 1.5 ± 0.3 nmol g^–1 h^–1 |
| COc1ccc(NC(C)=O)cc1 [M-acetaminophen] | 1 | 10.0 ± 0.0 L kg^–1, w.w. | 288 ± 6.7 | 1.03 | 33.3 | 0.4 | 32.1 ± 5.7 (≈ 194 µM) | 0.4 | 1.45 | 1.03 | not detected | fold difference of concentration in D. magna vs acetaminophen (D. magna [2]; after 2 h of exposure): 28 fold; concentration in D. magna (D. magna [2]; [10]): 8730.7 ± 2900.9 ng g^–1 (w.w.); BCF in vivo ratio (D. magna [2]; listed as methylated acetaminophen): about 33 |
| CC(=O)Nc1ccc(O)cc1 [acetaminophen, reference compound] | 0.9 | 0.3 ± 0.0 L kg^–1, w.w. | 3.3 ± 0 | 0.46 | 1.0 | 1.0 | – | 1 | – | – | – | logDlipw ([1]; pH 8.5): 0.89; logDow ([1]; pH 8.5): 0.41; pKa [4]: 9.38; rise of BCF after methylation (D. magna [2]; D. magna, in vivo): approximately 33 fold; concentration in D. magna (D. magna [2]; [10]): 308.7 ± 42.6 ng g^–1 (w.w.); LC50 at 48 h (in vivo [5]; other: waterborne exposure in the test medium): 21.2 ± 2.4 µg/mL (≈ 140 µM) |
| CN1C(=O)CN=C(c2ccccc2)c2cc(Cl)ccc21 [diazepam, reference compound] | 1 | 9.0 ± 0.4 L kg^–1, w.w. | – | 2.82 | – | – | – | – | – | – | – | demethylation in D. magna (demethylated product in exposed D. magna) (D. magna [3]; exposure to individual methylated compound): evident |
| COC(=O)Cc1ccccc1Nc1c(Cl)cccc1Cl [methylated diclofenac] | – | – | – | – | – | – | – | – | – | – | – | bioaccumulation relative to diclofenac (H. azteca and G. pulex): 25–110 fold |
| COC(=O)c1ccc(O)cc1 [methylparaben] | 0.41 | 2.8 ± 0.2 L kg^–1, w.w. | 12 ± 1.7 | – | – | – | 34.4 ± 4.3 (≈ 226 µM) | 2.7 | 1.93 | 1.57 | evident | concentration in D. magna (D. magna [2]; [8]): 2216.3 ± 85.7 ng g^–1 (w.w.) |
| COc1ccc2cc([C@H](C)C(=O)O)ccc2c1 [naproxen, reference compound] | – | 1.5 ± 0.6 L kg^–1, w.w. | – | – | – | – | – | – | – | – | evident | – |

— PMC10569044, “Methylation and Demethylation of Emerging Contaminants Changed Bioaccumulation and Acute Toxicity in Daphnia magna” (Environmental Science & Technology, 2023)
